# Results as given in PubChem BioAssay AID328 (DTP/NCI, 2004).
# “And” between values parts separate entries of the source, which are not always exact repeats. Equal entries are not always repeated. Inconclusive results and toxic doses are left out.
# Tested on: BDF1 mice, P388 leukemia ip, median survival T/C
# Assay: NCI In Vivo Anticancer Drug Screen. Data for tumor model P388 Leukemia (intraperitoneal) in B6D2F1 (BDF1) mice
# Details: endpoint: median survival time, higher = longer survival
# In short: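 Compound-treated tumour-bearing mice were compared with vehicle-treated controls. Survival was recorded, and the value is the treated-group measurement divided by the control-group measurement (T/C).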
# [1] = dose: 25.0 mg/kg/injection, schedule: Q01DX009 (ip), vehicle: saline with Tween-80
# [2] = dose: 50.0 mg/kg/injection, schedule: Q01DX009 (ip), vehicle: saline with Tween-80
# [3] = dose: 50.0 mg/kg/injection, schedule: Q04DX003 (ip), vehicle: saline with Tween-80
# [4] = dose: 100.0 mg/kg/injection, schedule: Q01DX009 (ip), vehicle: saline with Tween-80
# [5] = dose: 100.0 mg/kg/injection, schedule: Q04DX003 (ip), vehicle: saline with Tween-80
# [6] = dose: 200.0 mg/kg/injection, schedule: Q01DX009 (ip), vehicle: saline with Tween-80
# [7] = dose: 200.0 mg/kg/injection, schedule: Q04DX003 (ip), vehicle: saline with Tween-80
# [8] = dose: 12.5 mg/kg/injection, schedule: Q01DX009 (ip), vehicle: saline
# [9] = dose: 50.0 mg/kg/injection, schedule: Q01DX009 (ip), vehicle: saline
# [10] = dose: 100.0 mg/kg/injection, schedule: Q01DX009 (ip), vehicle: saline
structure (smiles),measurement,setting,value
CN=C1C=C(NC)C(F)(F)C1(F)F,T/C,"dose: 6.25 mg/kg/injection, schedule: Q01DX009 (ip), vehicle: saline with Tween-80",95 % of control
same,T/C,"dose: 12.5 mg/kg/injection, schedule: Q01DX009 (ip), vehicle: saline with Tween-80",100 % of control
same,T/C,"dose: 12.5 mg/kg/injection, schedule: Q04DX003 (ip), vehicle: Klucel (hydroxypropylcellulose) (HPC)",100 % of control
same,T/C,[1],100 % of control
same,T/C,"dose: 25.0 mg/kg/injection, schedule: Q04DX003 (ip), vehicle: Klucel (hydroxypropylcellulose) (HPC)",100 % of control
O=c1[nH]ccc2c(O)cccc12,T/C,[2],96 % of control
same,T/C,[3],100 % of control
same,T/C,[4],92 % of control
same,T/C,[5],95 % of control
same,T/C,[6],96 % of control
same,T/C,[7],91 % of control
CCOC(=O)C1CC(=O)c2ccccc2C1 (stereo not drawn),T/C,"dose: 12.5 mg/kg/injection, schedule: Q01DX009 (ip), vehicle: other",87 % of control
same,T/C,"dose: 100.0 mg/kg/injection, schedule: Q01DX009 (ip), vehicle: other",96 % of control
same,T/C,"dose: 200.0 mg/kg/injection, schedule: Q01DX009 (ip), vehicle: other",110 % of control
C[N-]N(C)C(=O)[S-].C[N-]N(C)C(=O)[S-].C[N-]N(C)C(=O)[S-].[Co],T/C,[5],105 % of control
Nc1ncnc2c1ncn2C(C=O)OC(C=O)CO (stereo not drawn),T/C,"dose: 0.88 mg/kg/injection, schedule: Q01DX009 (ip), vehicle: saline",106 % of control
same,T/C,"dose: 1.0 mg/kg/injection, schedule: Q01DX009 (ip), vehicle: carboxymethylcellulose (CMC)",119 % of control
same,T/C,"dose: 1.33 mg/kg/injection, schedule: Q01DX009 (ip), vehicle: saline",116 % of control
same,T/C,"dose: 2.0 mg/kg/injection, schedule: Q01DX009 (ip), vehicle: saline",119 % of control
same,T/C,"dose: 2.5 mg/kg/injection, schedule: Q04DX003 (ip), vehicle: carboxymethylcellulose (CMC)",113 % of control
same,T/C,"dose: 3.3 mg/kg/injection, schedule: Q01DX009 (ip), vehicle: saline",171 % of control
same,T/C,"dose: 4.0 mg/kg/injection, schedule: Q01DX009 (ip), vehicle: carboxymethylcellulose (CMC)",158 % of control
same,T/C,"dose: 5.0 mg/kg/injection, schedule: Q01DX009 (ip), vehicle: saline",261 % of control
same,T/C,"dose: 5.0 mg/kg/injection, schedule: Q04DX003 (ip), vehicle: carboxymethylcellulose (CMC)",122 % of control
same,T/C,"dose: 5.56 mg/kg/injection, schedule: Q01DX009 (ip), vehicle: saline",150 % of control
same,T/C,"dose: 7.5 mg/kg/injection, schedule: Q01DX009 (ip), vehicle: saline",152 % of control
same,T/C,"dose: 8.0 mg/kg/injection, schedule: Q01DX009 (ip), vehicle: carboxymethylcellulose (CMC)",97 % of control
same,T/C,"dose: 8.33 mg/kg/injection, schedule: Q01DX009 (ip), vehicle: saline",161 % of control
same,T/C,"dose: 10.0 mg/kg/injection, schedule: Q04DX003 (ip), vehicle: carboxymethylcellulose (CMC)",153 % of control
same,T/C,[8],209 % of control
same,T/C,"dose: 16.0 mg/kg/injection, schedule: Q01DX009 (ip), vehicle: carboxymethylcellulose (CMC)",184 % of control
same,T/C,"dose: 18.7 mg/kg/injection, schedule: Q01DX009 (ip), vehicle: saline",152 % of control
same,T/C,"dose: 20.0 mg/kg/injection, schedule: Q04DX003 (ip), vehicle: carboxymethylcellulose (CMC)",160 % of control
same,T/C,"dose: 40.0 mg/kg/injection, schedule: Q04DX003 (ip), vehicle: carboxymethylcellulose (CMC)",188 % of control
same,T/C,"dose: 80.0 mg/kg/injection, schedule: Q04DX003 (ip), vehicle: carboxymethylcellulose (CMC)",179 % of control
CCOC(=S)N/N=C(\C)CC,T/C,"dose: 2.5 mg/kg/injection, schedule: Q01DX009 (ip), vehicle: saline with Tween-80",93 % of control
same,T/C,"dose: 5.0 mg/kg/injection, schedule: Q01DX009 (ip), vehicle: saline with Tween-80",93 % of control
CC(C)NC1(C(N)=O)CCN(Cc2ccccc2)CC1,T/C,"dose: 50.0 mg/kg/injection, schedule: Q01DX009 (ip), vehicle: Klucel (hydroxypropylcellulose) (HPC)",95 % of control
same,T/C,"dose: 100.0 mg/kg/injection, schedule: Q01DX009 (ip), vehicle: Klucel (hydroxypropylcellulose) (HPC)",91 % of control
same,T/C,"dose: 200.0 mg/kg/injection, schedule: Q01DX009 (ip), vehicle: Klucel (hydroxypropylcellulose) (HPC)",95 % of control
CCCCCCCCC[N+]12CC[N+](CCCCCCCCC)(CC1)CC2,T/C,"dose: 3.13 mg/kg/injection, schedule: Q01DX009 (ip), vehicle: saline",101 % of control
same,T/C,"dose: 6.25 mg/kg/injection, schedule: Q01DX009 (ip), vehicle: saline",97 % of control
same,T/C,[8],98 % of control
O=C(O)/C(Br)=C/c1ccccc1,T/C,[3],100 % of control
same,T/C,[5],109 % of control
same,T/C,[7],95 % of control
O=[N+]([O-])c1ccc(S(=O)(=O)Cc2ccccc2)c2nonc12,T/C,[1],112 % of control
NC(=O)OCC#CCCl,T/C,[2],100 % of control
same,T/C,[4],98 % of control
same,T/C,[6],96 % of control
CCCC1CC[N-]CC1.CCCC1CC[N-]CC1.CCCC1CC[N-]CC1.CCCC1CC[N-]CC1.O=C([O-])C(=O)[O-].O=C([O-])C(=O)[O-].[Cl][Rh][Cl].[Nb+5].[O-][O-].[O-][O-],T/C,[8],112 % of control
same,T/C,"dose: 25.0 mg/kg/injection, schedule: Q01DX009 (ip), vehicle: saline",91 % of control and 100 % of control
same,T/C,[9],87 % of control and 97 % of control and 98 % of control
same,T/C,[10],87 % of control
same,T/C,"dose: 200.0 mg/kg/injection, schedule: Q01DX009 (ip), vehicle: saline",99 % of control
same,T/C,"dose: 400.0 mg/kg/injection, schedule: Q01DX009 (ip), vehicle: saline",91 % of control and 94 % of control
CC(/C=C/c1ccccc1)=N\NC(=O)CN(C)C,T/C,[9],94 % of control
same,T/C,[10],97 % of control
CNc1cccnc1/C=N/NC(N)=S,T/C,[2],194 % of control
same,T/C,[4],181 % of control
CC[C@@H](O)C[C@H]1CCC[C@@]2(C[C@@H]3OC(=O)/C=C/[C@@](C)(O)[C@@H](O)[C@H](C)[C@@H](O)[C@H](OC4CCC(N(C)C)C(C)O4)[C@@H](O)[C@](C)(O)CCCCC/C=C/[C@@H]4CC(C)(C)O[C@@]4(O)C[C@H](O2)[C@H]3C)O1 (stereo partly drawn),T/C,"dose: 0.04 mg/kg/injection, schedule: Q04DX003 (ip), vehicle: saline",91 % of control
same,T/C,"dose: 0.06 mg/kg/injection, schedule: Q04DX003 (ip), vehicle: saline",95 % of control
same,T/C,"dose: 0.1 mg/kg/injection, schedule: Q04DX003 (ip), vehicle: saline",108 % of control
same,T/C,"dose: 7.5 micrograms/kg/injection, schedule: Q01DX009 (ip), vehicle: saline",100 % of control
same,T/C,"dose: 7.5 micrograms/kg/injection, schedule: Q04DX003 (ip), vehicle: saline",104 % of control
same,T/C,"dose: 15.0 micrograms/kg/injection, schedule: Q01DX009 (ip), vehicle: saline",109 % of control
same,T/C,"dose: 15.0 micrograms/kg/injection, schedule: Q04DX003 (ip), vehicle: saline",104 % of control
same,T/C,"dose: 30.0 micrograms/kg/injection, schedule: Q01DX009 (ip), vehicle: saline",104 % of control
same,T/C,"dose: 30.0 micrograms/kg/injection, schedule: Q04DX003 (ip), vehicle: saline",113 % of control
CN1CSC(=S)N(Cc2ccccc2)C1,T/C,[2],90 % of control
same,T/C,[4],90 % of control
O=[N+]([O-])c1ccc(NCc2ccccc2)nc1,T/C,[1],107 % of control
same,T/C,[2],109 % of control
same,T/C,[4],114 % of control
CC(CCc1cccc2ccccc12)(C(=O)O)C(=O)O,T/C,"dose: 100.0 mg/kg/injection, schedule: Q04DX003 (ip), vehicle: saline sonified",100 % of control
same,T/C,"dose: 200.0 mg/kg/injection, schedule: Q04DX003 (ip), vehicle: saline sonified",91 % of control
Nc1nc(=O)n(C2CC(O)C(CO)O2)cc1Br (stereo not drawn),T/C,[4],109 % of control
same,T/C,[6],90 % of control
same,T/C,"dose: 400.0 mg/kg/injection, schedule: Q01DX009 (ip), vehicle: saline with Tween-80",100 % of control
O=C(O)c1ccc(-c2ccccc2)cc1,T/C,[2],100 % of control
same,T/C,[4],104 % of control
same,T/C,[5],104 % of control
same,T/C,[6],95 % of control
same,T/C,[7],104 % of control
CCCCN1CCCC(O)C1 (stereo not drawn),T/C,[9],100 % of control
same,T/C,[3],105 % of control
same,T/C,[10],100 % of control
same,T/C,[5],110 % of control
same,T/C,[7],100 % of control
COc1ccc(C2C(C#N)=C(N)NC(=O)C2C(N)=O)cc1 (stereo not drawn),T/C,"dose: 50.0 mg/kg/injection, schedule: Q01DX005 (ip), vehicle: saline with Tween-80",92 % of control
same,T/C,"dose: 100.0 mg/kg/injection, schedule: Q01DX005 (ip), vehicle: saline with Tween-80",89 % of control
same,T/C,"dose: 200.0 mg/kg/injection, schedule: Q01DX005 (ip), vehicle: saline with Tween-80",92 % of control
Nc1nc(C=O)c(Cc2ccc(Br)cc2)c(=O)[nH]1,T/C,[1],123 % of control
same,T/C,"dose: 25.0 mg/kg/injection, schedule: Q04DX003 (ip), vehicle: saline with Tween-80",104 % of control
same,T/C,[2],123 % of control
same,T/C,[3],104 % of control
same,T/C,"dose: 66.0 mg/kg/injection, schedule: Q01DX009 (ip), vehicle: saline with Tween-80",110 % of control
same,T/C,[5],113 % of control
